Data published in PMC6576746, “Rational discovery of dual-indication multi-target PDE/Kinase inhibitor for precision anti-cancer therapy using structural systems pharmacology” (PLoS Computational Biology, 2019).

Tests used:
Experiment in all cases: cells
Design in all cases: species or system panel of human cancer cell lines; Eurofins OncoPanel proliferation; nuclei count by high-content fluorescence imaging, 10-point dose response
[1] = test system: A427; settings: Homo sapiens, A-427, 72 h, cell count, 3 days
Outline: (§1)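 Cells in RPMI 1640/10% FBS or special medium received compound the day after seeding, with a time-zero plate; 3-day incubation at 37°C, 5% CO2. Nuclei imaged by fluorescence microscopy; 10 half-log doses from 100 μM, 0.1% DMSO. EC50, IC50, GI50 and activity area (0–10) from curve fits.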

[2] = test system: AN3 CA; settings: Homo sapiens, AN3-CA, 72 h, cell count, 3 days
Outline: as §1

[3] = test system: BT20; settings: Homo sapiens, BT-20, 72 h, cell count, 3 days
Outline: as §1

[4] = test system: C-33A; settings: Homo sapiens, C-33-A, 72 h, cell count, 3 days
Outline: as §1

[5] = test system: CEM-C1; settings: CEM/C1, 72 h, cell count, 3 days
Outline: as §1

[6] = test system: EM-2; settings: Homo sapiens, EM-2, 72 h, cell count, 3 days
Outline: as §1

[7] = test system: HCT-8; settings: Homo sapiens, HCT-8, 72 h, cell count, 3 days
Outline: as §1

[8] = test system: MX-1; settings: Homo sapiens, MX1, 72 h, cell count, 3 days
Outline: as §1

[9] = test system: RL95-2; settings: Homo sapiens, RL95-2, 72 h, cell count, 3 days
Outline: as §1

[10] = test system: Raji; settings: Homo sapiens, Raji, 72 h, cell count, 3 days
Outline: as §1

[11] = test system: SJSA1; settings: Homo sapiens, SJSA-1, 72 h, cell count, 3 days
Outline: as §1

[12] = test system: SR; settings: Homo sapiens, SR, 72 h, cell count, 3 days
Outline: as §1

[13] = test system: SU-DHL-4; settings: Homo sapiens, SU-DHL-4, 72 h, cell count, 3 days
Outline: as §1

[14] = test system: TE 381.T; settings: TE 381.T, 72 h, cell count, 3 days
Outline: as §1

[15] = 50% of maximum possible response

Question: For C[C@@H]1CC(=O)NN=C1c1ccc(NN=C(C#N)C#N)cc1 [levosimendan], which IC50 [1, 15] is on record?
Answer: The IC50 was 23.6 µM.

Question: And the GI50 ([1]; corrected for time zero)?
Answer: The GI50 was 18.4 µM.

Question: What about the EC50 ([1]; curve inflection point) of the same molecule?
Answer: Its EC50 is 23.6 µM.

Question: What about the IC50 [2, 15] of the same molecule?
Answer: Its IC50 is 21.2 µM.

Question: And the GI50 ([2]; corrected for time zero)?
Answer: Its GI50 is 11.6 µM.

Question: And the EC50 ([2]; curve inflection point)?
Answer: The EC50 was 21.2 µM.

Question: And the IC50 [3, 15]?
Answer: Its IC50 is > 100 µM.

Question: What about the GI50 ([3]; corrected for time zero) of the same molecule?
Answer: The GI50 was 64.2 µM.

Question: What about the EC50 ([3]; curve inflection point) of the same molecule?
Answer: Its EC50 is > 100 µM.

Question: And the IC50 [4, 15]?
Answer: Its IC50 is 14.5 µM.

Question: And the GI50 ([4]; corrected for time zero)?
Answer: Its GI50 is 10.7 µM.

Question: What about the EC50 ([4]; curve inflection point) of the same molecule?
Answer: Its EC50 is 14.5 µM.

Question: What about the IC50 [5, 15] of the same molecule?
Answer: The IC50 was 22.5 µM.

Question: What about the GI50 ([5]; corrected for time zero) of the same molecule?
Answer: The GI50 was 18.8 µM.

Question: What about the EC50 ([5]; curve inflection point) of the same molecule?
Answer: The EC50 was 22.5 µM.

Question: And the IC50 [6, 15]?
Answer: Its IC50 is 25.4 µM.

Question: What about the GI50 ([6]; corrected for time zero) of the same molecule?
Answer: The GI50 was 18.6 µM.

Question: And the EC50 ([6]; curve inflection point)?
Answer: The EC50 was 22.3 µM.

Question: And the IC50 [7, 15]?
Answer: Its IC50 is 23.9 µM.

Question: And the GI50 ([7]; corrected for time zero)?
Answer: Its GI50 is 23.3 µM.

Question: What about the EC50 ([7]; curve inflection point) of the same molecule?
Answer: The EC50 was 23.2 µM.

Question: What about the IC50 [8, 15] of the same molecule?
Answer: The IC50 was 40.4 µM.

Question: What about the GI50 ([8]; corrected for time zero) of the same molecule?
Answer: The GI50 was 37 µM.

Question: What about the EC50 ([8]; curve inflection point) of the same molecule?
Answer: The EC50 was 40.4 µM.

Question: And the IC50 [9, 15]?
Answer: Its IC50 is 21.1 µM.

Question: What about the GI50 ([9]; corrected for time zero) of the same molecule?
Answer: Its GI50 is 10.4 µM.

Question: And the EC50 ([9]; curve inflection point)?
Answer: The EC50 was 19 µM.

Question: And the IC50 [10, 15]?
Answer: The IC50 was 69.1 µM.

Question: And the GI50 ([10]; corrected for time zero)?
Answer: Its GI50 is 63.4 µM.

Question: And the EC50 ([10]; curve inflection point)?
Answer: Its EC50 is 69.1 µM.

Question: And the IC50 [11, 15]?
Answer: The IC50 was 41.9 µM.

Question: What about the GI50 ([11]; corrected for time zero) of the same molecule?
Answer: The GI50 was 18.4 µM.

Question: What about the EC50 ([11]; curve inflection point) of the same molecule?
Answer: Its EC50 is 41.9 µM.

Question: And the IC50 [12, 15]?
Answer: The IC50 was 16.1 µM.

Question: And the GI50 ([12]; corrected for time zero)?
Answer: The GI50 was 14.7 µM.

Question: What about the EC50 ([12]; curve inflection point) of the same molecule?
Answer: The EC50 was 15.6 µM.

Question: And the IC50 [13, 15]?
Answer: Its IC50 is 4.77 µM.

Question: What about the GI50 ([13]; corrected for time zero) of the same molecule?
Answer: The GI50 was 3.31 µM.

Question: What about the EC50 ([13]; curve inflection point) of the same molecule?
Answer: The EC50 was 0.944 µM.

Question: What about the IC50 [14, 15] of the same molecule?
Answer: Its IC50 is 24.5 µM.

Question: What about the GI50 ([14]; corrected for time zero) of the same molecule?
Answer: Its GI50 is 15.5 µM.

Question: What about the EC50 ([14]; curve inflection point) of the same molecule?
Answer: Its EC50 is 24.5 µM.
